For 50 compounds, IC50 results are on record in ChEMBL document CHEMBL1135763, “Discovery of aminothiazole inhibitors of cyclin-dependent kinase 2: synthesis, X-ray crystallographic analysis, and biological activities” (J Med Chem, 2002).

Experiment [1] concerns the target Cyclin-dependent kinase 4/cyclin D1 (Homo sapiens, UniProt P11802). The experiment can be described thus: Inhibitory activity against baculovirus expressed Cyclin dependent kinase 4-cyclinD1. The class given is protein-complex assay.
Experiment [2] addresses Cyclin-dependent kinase 2/cyclin E (Homo sapiens, UniProt P24941). The experiment can be described thus: Inhibitory activity against baculovirus expressed Cyclin dependent kinase 2-cyclinE. The class given is protein-complex assay.
The target of experiment [3] is Cyclin-dependent kinase 1/cyclin B (Homo sapiens, UniProt P06493). The experiment is described as follows: Inhibitory activity against baculovirus expressed Cyclin dependent kinase 1-cyclinB. The class given is protein-complex assay.
For another experiment, the system named is A2780. The experiment can be described thus: cells. To be noted: Homo sapiens.

Each structure is given as a SMILES string.

Sequence of Cyclin-dependent kinase 4/cyclin D1 (P11802 whole entry): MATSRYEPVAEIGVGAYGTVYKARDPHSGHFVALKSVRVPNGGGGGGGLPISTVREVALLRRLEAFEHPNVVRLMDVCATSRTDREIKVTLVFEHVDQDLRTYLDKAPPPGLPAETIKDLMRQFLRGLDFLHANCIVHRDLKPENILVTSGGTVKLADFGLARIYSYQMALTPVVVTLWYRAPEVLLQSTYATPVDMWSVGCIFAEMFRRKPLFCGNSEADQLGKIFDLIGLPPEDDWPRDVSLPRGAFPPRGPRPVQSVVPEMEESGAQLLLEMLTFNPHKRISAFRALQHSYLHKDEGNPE
Sequence of Cyclin-dependent kinase 4/cyclin D1 (P24385 whole entry, further chain): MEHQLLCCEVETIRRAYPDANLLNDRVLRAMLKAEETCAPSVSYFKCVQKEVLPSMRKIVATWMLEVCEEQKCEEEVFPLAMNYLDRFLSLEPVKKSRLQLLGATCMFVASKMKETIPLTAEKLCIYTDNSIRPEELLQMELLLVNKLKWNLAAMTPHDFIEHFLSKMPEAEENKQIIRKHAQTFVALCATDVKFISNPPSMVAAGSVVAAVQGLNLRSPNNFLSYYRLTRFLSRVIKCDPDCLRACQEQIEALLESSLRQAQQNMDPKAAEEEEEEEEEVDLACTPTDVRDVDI
Description for A2780: Cytotoxic activity against A2780 human ovarian carcinoma cell line

As to `CC(=O)Nc1ncc(SCc2ncc(C(C)C)o2)s1`, the half-maximal inhibitory concentration (IC50) (as a rule, the point on the concentration scale where inhibition reaches its midpoint) stood at 1070 nM in experiment [1], 6 nM in experiment [2], 60 nM in experiment [3] and 200 nM with A2780.

As for `C[C@@H](C(=O)Nc1ncc(SCc2ncc(C(C)(C)C)o2)s1)c1ccccc1`, the results for the IC50 (in experiment [1]; in experiment [2]; in the experiment with A2780) were 3130 nM, 6 nM and 900 nM, respectively.

As for `CC(C)(C)C(=O)Nc1ncc(SCc2ncc(C(C)(C)C)o2)s1`, the 50% inhibitory concentration (IC50) in experiment [1] came to 3480 nM; in experiment [2], 17 nM; in experiment [3] it was 90 nM; in the experiment on A2780, 250 nM.

The compound `CCN(C)C(=O)CSc1cnc(NC(C)=O)s1` yielded an IC50 in experiment [2] of more than 25000 nM.

In the case of `CC(C)(C)c1cnc(CSc2cnc(NC(=O)OCc3ccccc3)s2)o1`, the values for the IC50 (in experiment [2]; in the experiment on A2780) were 150 nM and 1040 nM, respectively.

For `CC(=O)Nc1ncc(SCc2c(C)noc2C)s1`, in experiment [2], the IC50 is more than 1000 nM.

In experiment [2], `CC(=O)Nc1cnc(SCc2ncc(C(C)(C)C)o2)s1` returned an IC50 of more than 25000 nM.

Compound `CCOC(=O)CCCCCSc1cnc(NC(C)=O)s1` yielded a 50% inhibitory concentration (IC50) in experiment [2] of more than 1000 nM.

As for `COCCSc1cnc(NC(C)=O)s1`, the half-inhibitory concentration (IC50) in experiment [2] was more than 1000 nM.

On to `CC(C)C(=O)Nc1ncc(S(=O)(=O)Cc2ncc(C(C)(C)C)o2)s1`, for which the 50% inhibitory concentration (IC50) is 250 nM in experiment [2] and more than 250 nM in experiment [3].

Turning to `CC(C)(C)c1cnc(CSc2cnc(NC(=O)Nc3c(F)cccc3F)s2)o1`, the IC50 in experiment [1] stood at 390 nM; in experiment [2], 2 nM; in experiment [3], 10 nM; in the experiment with A2780, 240 nM.

Compound `CC(=O)Nc1ncc(SCC2CCCCC2)s1` registered an IC50 in experiment [2] of more than 1000 nM.

In experiment [2], `CC(=O)Nc1ncc(SCCOc2ccccc2)s1` showed an IC50 of more than 1000 nM.

Compound `CC(=O)Nc1ncc(SCC(C)C)s1` displayed an IC50 in experiment [2] of more than 1000 nM.

On to `CC(=O)Nc1ncc(SCC(=O)CC(C)(C)C)s1`, for which, in experiment [2], it took 1840 nM to reach half-maximal inhibition (IC50).

In the case of `COC(=O)C(Sc1cnc(NC(C)=O)s1)C1CCCCC1` (stereo not drawn), the IC50 in experiment [2] is more than 1000 nM.

`CC(=O)Nc1ncc(SCc2nc(C)c(C)o2)s1` came in with an IC50 in experiment [2] of 360 nM. This lies in the sub-micromolar range.

`CCc1coc(CSc2cnc(NC(C)=O)s2)n1` yielded a concentration for half-maximal inhibition (IC50) in experiment [2] of 200 nM.

In the case of `CC(C)(C)c1ncc(CSc2cnc(NC(=O)Cc3ccccc3)s2)o1`, in experiment [2], the half-maximal inhibitory concentration (IC50) worked out at 3 nM.

In experiment [2], `CC(=O)Nc1ncc(SCCOC(C)(C)C)s1` gave an IC50 of 1740 nM.

In turn, `CC(=O)Nc1ncc(SCc2ccncc2)s1` returned an IC50 in experiment [2] of more than 1000 nM.

On to `CCC(CC)CSc1cnc(NC(C)=O)s1`, for which the IC50 in experiment [2] is more than 1000 nM.

The compound `C[C@H](C(=O)Nc1ncc(SCc2ncc(C(C)(C)C)o2)s1)c1ccccc1` showed a half-maximal inhibitory concentration (IC50) in experiment [2] of 60 nM.

As for `CC(=O)Nc1ncc(SCC(=O)OC(C)(C)C)s1`, the concentration for half-maximal inhibition (IC50) in experiment [1] stood at 5380 nM; in experiment [2] it was 50 nM; in experiment [3], 440 nM.

As to `CC(=O)Nc1ncc(SCc2ncc(C(C)(C)C)o2)s1`, the half-inhibitory concentration (IC50) turned out to be 690 nM in experiment [1], 5 nM in experiment [2] and 40 nM in experiment [3].

`CC(=O)Nc1ncc(SCCc2cccc3ccccc23)s1` returned a half-inhibitory concentration (IC50) in experiment [2] of more than 1000 nM.

The compound `CC(C)(C)c1cnc(CSc2cnc(NC(=O)c3ccccc3)s2)o1` had an IC50 in experiment [1] of 960 nM.

Compound `CC(=O)Nc1nc(CSc2cnc(NC(C)=O)s2)cs1` had a concentration for half-maximal inhibition (IC50) in experiment [2] of more than 1000 nM.

As to `CC(C)(C)c1cnc(CSc2cnc(NC(=O)Nc3ccc(F)cc3)s2)o1`, the half-inhibitory concentration (IC50) in experiment [1] is 900 nM; in experiment [2], 11 nM; in experiment [3], 19 nM; in the experiment on A2780 it was 900 nM.

Turning to `CC(=O)Nc1ncc(SCc2ncc(-c3ccccc3)o2)s1`, the IC50 stood at 4510 nM in experiment [1] and 350 nM in experiment [2].

For the compound `CC(C)(C)c1cnc(CSc2cnc(NS(=O)(=O)c3ccccc3)s2)o1`, the figures for the IC50 (in experiment [2]; with A2780) were 4280 nM and 2860 nM, respectively.

`CC(C)OC(=O)Nc1ncc(SCc2ncc(C(C)(C)C)o2)s1`: the IC50 in experiment [1] was determined as 2990 nM; in experiment [2], 25 nM; in experiment [3] it was 18 nM; in the experiment on A2780, 640 nM.

`CC(C)C(=O)N(C)c1ncc(SCc2ncc(C(C)(C)C)o2)s1`: in experiment [2], the half-maximal inhibitory concentration (IC50) is more than 25000 nM.

In the case of `CC(=O)Nc1nnc(SCC(=O)OC(C)(C)C)s1`, the half-inhibitory concentration (IC50) in experiment [2] was more than 25000 nM.

Turning to `CC(C)(C)c1cnc(CSc2cnc(NC(=O)Nc3c(Cl)cccc3Cl)s2)o1`, the IC50 was more than 1000 nM in experiment [1], 3 nM in experiment [2], 30 nM in experiment [3] and 1500 nM with A2780.

For `CC(C)C(=O)Nc1ncc([S+]([O-])Cc2ncc(C(C)(C)C)o2)s1` (stereo not drawn), the concentration for half-maximal inhibition (IC50) is more than 25000 nM in experiment [1], 140 nM in experiment [2] and 140 nM in experiment [3].

In the case of `CCNC(=O)Nc1ncc(SCc2ncc(C(C)(C)C)o2)s1`, the concentration for half-maximal inhibition (IC50) in experiment [2] is 50 nM; in the experiment on A2780, 120 nM.

For the compound `CCc1cnc(CSc2cnc(NC(=O)C(C)C)s2)o1`, the IC50 in experiment [1] is 1070 nM; in experiment [2], 5 nM; in experiment [3] it was 60 nM; with A2780, 200 nM.

`CC(=O)Nc1ncc(SCc2ccccn2)s1` displayed a half-maximal inhibitory concentration (IC50) in experiment [2] of more than 1000 nM.

In the case of `CC(C)C(=O)Nc1ncc(SCc2ncc(C(C)(C)C)o2)s1`, the IC50 was 900 nM in experiment [1], 5 nM in experiment [2], 30 nM in experiment [3] and 50 nM in the experiment on A2780.

Regarding `CC(=O)Nc1ncc(SCc2ncc(C)o2)s1`, the 50% inhibitory concentration (IC50) in experiment [1] came to 5160 nM; in experiment [2] it was 90 nM.

In experiment [2], `CC(=O)Nc1ncc(SCCc2ccccc2)s1` gave an IC50 of 12600 nM. This lies in the double-digit micromolar range.

As to `CC(=O)Nc1ncc(SCc2cccnc2)s1`, in experiment [2], the IC50 is 680 nM.

In experiment [2], `CC(=O)Nc1ncc(SCC(O)CC(C)(C)C)s1` (stereo not drawn) came in with an IC50 of 2810 nM. Compared with the last compound, the IC50 is about 4.1-fold higher.

In the case of `CC(=O)Nc1ncc(SCC(=O)O)s1`, the concentration for half-maximal inhibition (IC50) in experiment [2] was more than 25000 nM.

As for `CC(=O)Nc1ncc(SCc2ncc(CC3CCCCC3)o2)s1`, the IC50 in experiment [1] was determined as 640 nM; in experiment [2], 4 nM; in experiment [3] it was 30 nM; in the experiment with A2780, 1540 nM.

On to `CC(=O)Nc1ncc(SCc2nnsc2Cl)s1`, for which the IC50 in experiment [2] was more than 1000 nM.

On to `CC(=O)Nc1ncc(SCC(=O)OCc2ccccc2)s1`, for which the half-inhibitory concentration (IC50) stood at 19100 nM in experiment [1], 340 nM in experiment [2] and 2380 nM in experiment [3].

In turn, `COC(=O)c1ccc(CSc2cnc(NC(C)=O)s2)o1` came in with an IC50 in experiment [2] of more than 1000 nM.

The compound `COC(=O)C(Sc1cnc(NC(C)=O)s1)c1ccccc1` (stereo not drawn) came in with a 50% inhibitory concentration (IC50) in experiment [2] of more than 1000 nM.
